Test results taken from patent US20150352209A1, “NANOFIBER HAVING SELF-HEATING […] BIOLOGICALLY ACTIVE SUBSTANCE RELEASE PROPERTIES, PRODUCTION METHOD FOR SAME, AND NONWOVEN FABRIC HAVING SELF-HEATING […] BIOLOGICALLY ACTIVE SUBSTANCE RELEASE CAPABILITIES” (NATIONAL INSTITUTE FOR MATERIALS SCIENCE, priority 2013, published 2015).

Test system: COLO679 cell, which is a human melanoma cell line
Assay: Cancer cell killing test (cell proliferation index)
Assay type: cell-based
Conditions: COLO679 cells; anticancer drug added instead of application of alternating magnetic field

**Q.** With `COc1cccc2c1C(=O)c1c(O)c3c(c(O)c1C2=O)C[C@@](O)(C(=O)CO)C[C@@H]3O[C@H]1C[C@H](N)[C@H](O)[C@H](C)O1` [free anticancer drug, doxorubicin] as the compound, how does the “change of cell proliferation index (CPI)” value read?
**A.** Its value is “the decrease amount of the CPI was smaller than in the case in which the sample in Example 1 was used”.
